Source: article PMC5462828 (Scientific Reports, 2017)
Where two headings read alike, the source gives them in different places.

Assays:
AVPR1B = tested on: AVPR1B; set-up: method as in PMID 23764525; settings: cited from earlier work
human RXFP1 = settings: cited from earlier work
RXFP2 = settings: cited from earlier work
RXFP1 [1] = assay: cAMP accumulation in human primary vascular cells and cardiac fibroblasts; format: cell-based; settings: HUAEC, cells known not to express cell surface RXFP1; 30 min
Protocol: (§1) cAMP and cGMP accumulation was determined as previously described, [16]. Briefly, HEK293 cells were plated in 96-well plates (5 × 10^4 cells/well) and human primary cells were plated into 24-well plates (1 × 10^5 cells/well) and grown overnight to achieve a confluent monolayer. Prior to stimulation, HEK cells were serum-starved in DMEM containing 0.5% FBS v/v and primary cells were serum-starved in M199 medium for 4–6 hours. Where appropriate, cells were pre-incubated with mSIRK (5 μM, 30 min), mSIRK control peptide L9A (5 μM, 30 min), gallein (100 μM, 30 min), Wortmannin (100 nM, 30 min), NF023 (10 μM, 30 min) and NF449 (10 μM, 30 min). Levels of cAMP and cGMP were detected according to the manufacturer’s instructions (Perkin-Elmer, Australia).

RXFP1 [2] = target: T1, RXFP1 (Homo sapiens, UniProt Q9HBX9); assay: as above; format: cell-based; settings: for Emax: 30 min
T1 sequence (Q9HBX9 1-757): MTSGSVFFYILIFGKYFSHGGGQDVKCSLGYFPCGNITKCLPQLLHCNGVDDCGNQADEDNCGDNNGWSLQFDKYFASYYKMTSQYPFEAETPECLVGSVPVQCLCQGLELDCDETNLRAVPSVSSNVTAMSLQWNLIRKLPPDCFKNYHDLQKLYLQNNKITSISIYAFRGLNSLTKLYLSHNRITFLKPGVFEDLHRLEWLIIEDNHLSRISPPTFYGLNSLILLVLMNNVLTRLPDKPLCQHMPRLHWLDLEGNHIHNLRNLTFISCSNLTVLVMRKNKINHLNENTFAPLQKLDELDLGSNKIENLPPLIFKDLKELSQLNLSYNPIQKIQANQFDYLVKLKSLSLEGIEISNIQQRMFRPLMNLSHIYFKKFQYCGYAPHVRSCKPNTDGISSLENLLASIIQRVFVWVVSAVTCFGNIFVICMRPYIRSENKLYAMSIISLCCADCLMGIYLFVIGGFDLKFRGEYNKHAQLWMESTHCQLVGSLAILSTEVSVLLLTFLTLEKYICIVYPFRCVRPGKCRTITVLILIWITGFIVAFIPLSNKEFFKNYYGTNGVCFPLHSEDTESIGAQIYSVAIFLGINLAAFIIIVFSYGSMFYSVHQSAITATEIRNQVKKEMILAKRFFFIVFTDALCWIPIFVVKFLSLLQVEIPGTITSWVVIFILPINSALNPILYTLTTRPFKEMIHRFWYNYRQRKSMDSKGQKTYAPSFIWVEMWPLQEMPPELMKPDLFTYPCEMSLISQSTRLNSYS
Protocol: as §1

THP-1 cells = tested on: THP-1 cells; set-up: method as in PMID 23764525; settings: cited from earlier work
[3] = tested on: ML290-mediated cGMP accumulation; assay: Effect of signalling pathway inhibitors on ML290-mediated cGMP accumulation in human primary vascular cells; format: cell-based; settings: for Emax: Homo sapiens, read-out: ML290-mediated cGMP accumulation (maximum response), ML290 alone
Protocol: as §1, with “Where appropriate, cells were pre-incubated with mSIRK (5 μM, 30 min), mSIRK control peptide L9A (5 μM, 30 min), gallein (100 μM, 30 min), Wortmannin (100 nM, 30 min), NF023 (10 μM, 30 min) and NF449 (10 μM, 30 min).” left out

[4] = tested on: ML290-mediated cAMP accumulation; assay: Effect of signalling pathway inhibitors on ML290-mediated cAMP accumulation in human primary vascular cells; format: cell-based
Protocol: as §1, with “Where appropriate, cells were pre-incubated with mSIRK (5 μM, 30 min), mSIRK control peptide L9A (5 μM, 30 min), gallein (100 μM, 30 min), Wortmannin (100 nM, 30 min), NF023 (10 μM, 30 min) and NF449 (10 μM, 30 min).” left out

[5] = HUASMCs, control of NF449 and mSIRK experiments
[6] = HUASMCs, control of gallein and Wortmannin experiments
[7] = HUVSMCs, control of NF449 and mSIRK experiments
[8] = HUVSMCs, control of gallein and Wortmannin experiments

## CC(C)Oc1ccccc1C(=O)Nc1ccccc1C(=O)Nc1cccc(S(=O)(=O)C(F)(F)F)c1 [ML290, 2-Isopropoxy-N-(2-(3-(trifluoromethylsulfonyl)phenylcarbamoyl)phenyl) benzamide]
AVPR1B
  action at AVPR1B: little or no action
Human RXFP1
  agonist action at human RXFP1: activates
RXFP2
  action at RXFP2: little or no action
RXFP1 [1]
  cAMP accumulation: did not cause cAMP accumulation
RXFP1 [2]; HUVEC, read-out: cAMP accumulation efficacy (Emax), HUVEC
  Emax: 11.7%
RXFP1 [2]; human primary vascular cells
  potency for cAMP accumulation, less potent than H2 relaxin: 3 orders of magnitude
RXFP1 [2]; read-out: cAMP accumulation efficacy (Emax), HCAEC
  Emax: 17.9%
RXFP1 [2]; read-out: cAMP accumulation efficacy (Emax), HUASMC
  Emax: 11.9%
THP-1 cells
  VEGF expression: increased VEGF expression
[3]; [5]
  ML290-mediated cGMP accumulation, ML290 alone: 41.9 ± 4.8%
[3]; [6]
  ML290-mediated cGMP accumulation, ML290 alone: 32.1 ± 4.2%
[3]; [7]
  ML290-mediated cGMP accumulation, ML290 alone: 31.4 ± 4.8%
[3]; [8]
  ML290-mediated cGMP accumulation, ML290 alone: 30.4 ± 3.2%
[3]; HUVEC
  Emax: 39.5 ± 4.8%
[3]
  Emax: 41 ± 4.5%
[4]; HCAECs, ML290 10 μM, 30 min
  ML290-mediated cAMP accumulation, ML290 alone: 22.5 ± 5.5 % response to 50 μM forskolin
[4]; [5]
  ML290-mediated cAMP accumulation, ML290 alone: 18.8 ± 4.3 % response to 50 μM forskolin
[4]; [6]
  ML290-mediated cAMP accumulation, ML290 alone: 16.7 ± 3.4 % response to 50 μM forskolin
[4]; HUVECs, ML290 10 μM, 30 min
  ML290-mediated cAMP accumulation, ML290 alone: 16.4 ± 2.5 % response to 50 μM forskolin
[4]; [7]
  ML290-mediated cAMP accumulation, ML290 alone: 18.8 ± 8.0 % response to 50 μM forskolin
[4]; [8]
  ML290-mediated cAMP accumulation, ML290 alone: 12.6 ± 2.4 % response to 50 μM forskolin
